The source of these data is patent US11767305B2, “Advantageous benzofuran compositions for mental disorders or enhancement” (Tactogen Inc, priority 2020, dated 2023).

SMILES strings stand for the structures.

Test [1] concerns the target Nicotinic Acetylcholine Receptor α4β2 (nAchRa4/b2) (Homo sapiens (Human), UniProt P17787+P43681). In words: Nicotinic acetylcholine receptor α4β2 ion channel blocking assay. The format is cell-based. How it is done:
Cell lines were expanded from freezer stocks according to standard procedures. Cells were seeded in a total volume of 20 μL into black-walled, clear-bottom, Poly-D-lysine coated 384-well microplates and incubated at 37° C. for the appropriate time prior to testing.
Assays were performed in 1×Dye Loading Buffer consisting of 1×Dye, and 2.5 mM freshly-prepared Probenecid when applicable.
Test compounds were assayed at 10 concentrations with the highest concentration either 30 or 10 μM and subsequent concentrations using a 0.33 dilution factor.
Prior to testing, cells were loaded with dye then incubated for 30-60 minutes at 37° C. For antagonist determination, cells were pre-incubated with sample. Dihydro-β-erythroidine was used as a positive control. Intermediate dilution of sample stocks was performed to generate 2-5×sample in assay buffer.
After dye loading, cells were moved from the incubator and 10-25 μL 2-5×sample was added to cells in the presence of EC80 agonist when appropriate. Cells were incubated for 30 minutes at room temperature in the dark to equilibrate plate temperature. Vehicle concentration was 1%.
Compound activity was measured on a FLIPRTetra(MDS) and analyzed using CBIS data analysis suite (ChemInnovation, CA). Percentage inhibition was calculated using the following formula: % Inhibition=100%×(1−(mean RLU of test sample−mean RLU of vehicle control)/(mean RLU of EC80 control−mean RLU of vehicle control)).

Test [2] deals with serotonin (5-HT) transporter (SERT) (Rattus norvegicus (Rat), UniProt P31652). In words: Rat synaptosome SERT [3H]5-HT release assay. As to conditions: [3H]5-HT release via SERT EC50 (nM), 5 nM [3H]5-HT.
In another test the target is 5-HT1BR (Homo sapiens (Human), UniProt P28222). In words: 5-HT1BR cAMP secondary messenger agonist assay (HitHunter, CHO-K1). The format is cell-based. The text has this:
The 5-HT1BR cAMP secondary messenger agonist assay used a panel of CHO-K1 cell lines stably expressing non-tagged GPCRs that endogenously signal through cAMP. Hit Hunter® cAMP assays monitored the activation of a GPCR via Gi and Gs secondary messenger signaling in a homogenous, non-imaging assay format using DiscoverX Enzyme Fragment Complementation (EFC) with β-galactosidase as the functional endpoint.
The enzyme was split into two complementary portions: Enzyme Acceptor (EA) and Enzyme Donor (ED). Exogenously introduced ED fused to cAMP (ED-cAMP) competed with endogenously generated cAMP for binding to an anti-cAMP-specific antibody. Active β-galactosidase was formed by complementation of exogenous EA to any unbound ED-cAMP.
Cell lines were expanded from freezer stocks according to standard procedures. Cells were seeded in a total volume of 20 μL into white walled, 384-well microplates and incubated at 37° C. for the appropriate time prior to testing. cAMP modulation was determined using the DiscoverX HitHunter cAMP XS+ assay.
For agonist determination, cells were incubated with sample (in the presence of EC80 forskolin to induce response if measuring Gi secondary messenger signaling). Media was aspirated from cells and replaced with 15 μL 2:1 HBSS/10 mM Hepes:cAMP XS+ Ab reagent. Intermediate dilution of sample stocks was performed to generate 4×sample in assay buffer (optionally containing 4×EC80 forskolin). 5 μL of 4×sample was added to cells and incubated at 37° C. or room temperature for 30 or 60 minutes, as appropriate. Final assay vehicle concentration was 1%.

Chain of Nicotinic Acetylcholine Receptor α4β2 (nAchRa4/b2) (P43681 29-627 limits assumed): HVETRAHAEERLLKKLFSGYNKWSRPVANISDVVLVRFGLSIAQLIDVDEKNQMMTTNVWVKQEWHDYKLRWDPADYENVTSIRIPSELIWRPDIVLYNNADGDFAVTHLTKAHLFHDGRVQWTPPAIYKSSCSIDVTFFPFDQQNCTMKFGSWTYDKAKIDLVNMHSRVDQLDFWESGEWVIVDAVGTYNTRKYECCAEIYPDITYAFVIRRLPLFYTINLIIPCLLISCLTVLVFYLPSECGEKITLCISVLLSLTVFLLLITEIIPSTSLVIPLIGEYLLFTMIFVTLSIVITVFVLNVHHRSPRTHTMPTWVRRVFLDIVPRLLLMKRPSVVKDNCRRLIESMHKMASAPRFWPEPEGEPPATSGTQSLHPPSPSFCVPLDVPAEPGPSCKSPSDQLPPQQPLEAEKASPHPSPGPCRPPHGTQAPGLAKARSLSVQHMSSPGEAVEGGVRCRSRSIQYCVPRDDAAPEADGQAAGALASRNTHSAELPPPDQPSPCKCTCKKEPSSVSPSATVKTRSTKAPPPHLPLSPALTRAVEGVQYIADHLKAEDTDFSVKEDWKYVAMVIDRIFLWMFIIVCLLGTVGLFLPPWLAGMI
Chain of Nicotinic Acetylcholine Receptor α4β2 (nAchRa4/b2) (P17787 26-502 limits assumed): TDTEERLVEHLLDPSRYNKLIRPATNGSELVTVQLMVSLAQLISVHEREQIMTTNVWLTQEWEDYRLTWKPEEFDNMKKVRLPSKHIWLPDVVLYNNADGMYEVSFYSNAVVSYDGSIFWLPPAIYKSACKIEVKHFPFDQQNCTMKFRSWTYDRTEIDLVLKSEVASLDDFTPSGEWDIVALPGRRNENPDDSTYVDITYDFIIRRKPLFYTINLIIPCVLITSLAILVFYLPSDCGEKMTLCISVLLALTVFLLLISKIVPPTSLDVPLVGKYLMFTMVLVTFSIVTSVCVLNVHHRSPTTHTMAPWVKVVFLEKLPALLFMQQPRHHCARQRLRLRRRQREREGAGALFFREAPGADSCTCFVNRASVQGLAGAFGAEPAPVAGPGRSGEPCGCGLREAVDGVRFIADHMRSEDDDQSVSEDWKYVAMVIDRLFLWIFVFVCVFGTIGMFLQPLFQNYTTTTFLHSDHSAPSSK

As to `CN[C@H](C)Cc1ccc2ccoc2c1` [Compound R-6-MAPB, (R)-1-(benzofuran-6-yl)-N-methylpropan-2-amine], in test [1], the IC50 (usually the midpoint of a concentration-inhibition curve) stood at 7410 nM. The concentration for a half-maximal effect (EC50) (usually the concentration needed to bring the measured effect to its halfway point) amounted to 112 ± 17.5 nM in test [2], 1.48 µM at 5-HT1BR (5-HT1BR EC50 (μM)) and 1.48 µM on 5-HT1BR (5HT1B Agonist (μM)). The “Hill Coef.” value on 5-HT1BR is given as 1.14.
